Patent publication US20040087561A1, “Treatment of sexual dysfunction” (priority 2000, published 2004)

Key:
Male New Zealand rabbits = assay: Pelvic nerve-stimulated penile intracavernosal pressure, anaesthetised rabbit model of erection; format: in vivo; settings: Compound 3 (10 mg/kg sc) concomitant with selective PDE5 inhibitor (1 mg/kg iv), compared with same dose of Compound 3 alone
Protocol: (§1) Male New Zealand rabbits (˜2.5 kg) were pre-medicated with a combination of Medetomidine (Domitor®) 0.5 ml/kg i.m., and Ketamine (Vetalar®) 0.25 ml/kg i.m. whilst maintaining oxygen intake via a face mask. The rabbits were tracheotomised using a Portex™ uncuffed endotracheal tube 3 ID., connected to ventilator and maintained at a ventilation rate of 30-40 breaths per minute, with an approximate tidal volume of 18-20 ml, and a maximum airway pressure of 10 cm H2O. Anaesthesia was then switched to Isoflurane and ventilation continued with O2 at 2 l/min. The right marginal ear vein was cannulated using a 23G or 24G catheter, and Lactated Ringer solution perfused at 0.5 ml/min. The rabbit was maintained at 3% Isoflurane during invasive surgery, dropping to 2% for maintenance anaesthesia. The left jugular vein was exposed, isolated and then cannulated with a PVC catheter (17G) for the infusion of drugs and compounds.
The left groin area of the rabbit was shaved and a vertical incision was made approximately 5 cm in length along the thigh. […] Systolic and diastolic pressures were measured, and the mean arterial pressure calculated using the formula (diastolic ×2+systolic)[…]. Heart rate was measured via the pulse oxymeter and Po-ne-mah data acquisition software system (Ponemah Physiology Platform, Gould Instrument Systems Inc). […]

[1] = test system: Female New Zealand rabbits; assay: Pelvic nerve-stimulated female genital blood flow, anaesthetised rabbit model of sexual arousal; format: in vivo; settings: 15 mg/kg sc
Protocol: as §1, with “Female” for “Male”, “(2.5” for “(˜2.5”, “im.,” for “i.m.,”, “anaesthesia.” for “anaesthesia. The left jugular vein was exposed, isolated and then cannulated with a PVC catheter (17G) for the infusion of drugs and compounds.”
The left groin area of the rabbit was shaved and a vertical incision was made approximately 5 cm in length along the thigh. […] Systolic and diastolic pressures were measured, and the mean arterial pressure calculated using the formula (diastolic ×2+systolic)÷3. Heart rate was measured via the pulse oxymeter and Po-ne-mah data acquisition software system (Ponemah Physiology Platform, Gould Instrument Systems Inc). […] A frequency response curve was determined at the start of each experiment in order to determine the optimum frequency to use as a sub-maximal response, normally 4 Hz. […]

conscious male rat = assay: Penile intracavernosal pressure in the conscious male rat (telemetry); format: in vivo
Protocol: In addition to treating women with FSD, bombesin antagonists will be useful in treating male erectile dysfunction (MED. Both the non-selective BB1/2 antagonists (Compound 1; 10 mg/kg sc) and the selective BB I receptor antagonist (Compound 3; 15 mg/kg sc) is pro-erectile in a conscious rat model of penile erection (FIGS. 24 and 25). Erectile responses were recorded by measuring intracavemosal pressure using surgically implanted telemetric device. The specific details the surgical procedures, data acquisition and analysis can be found in detail in Bernabe 1999.
Compound 1 and compound 3 were dissolved in 50% O-cyclodextrin in saline. They were administered at a dose of 15 mg/kg subcutaneously (sc). […] These increases equate to penile erection. Both Compounds 1 and 3 induced a number of erections in a similar manner to those observed with apomorphine or melanotan-II—both of which are clinically proven agents that are effective in the treatment of MED. Moreover the amplitude of the increases observed were similar to those observed with apomorphine or melanotan-II. The mechanism of action is thought to be similar to the effects on female genital flow ie CNS potentiation of the descending neuronal pathways that control penile erection.

human GRP receptor (BB2) = biological target: T1, human GRP receptor (BB2) (Homo sapiens, UniProt P30550); assay: BB2 binding assay ([125I][Tyr4]bombesin, CHO-K1 cell membranes)
T1 construct: expressed in transfected cells; host or cells: CHO-K1
Protocol: (§2) In the following experiments, measurement of BB1 and BB2 binding was as follows. CHO-K1 cells stably expressing cloned human NMB (for (BB1 assay) and GRP receptors (for BB2 assay) were routinely grown in Ham's F12 culture medium supplemented with 10% foetal calf serum and 2 mM glutamine. For binding experiments, cells were harvested by trypsinization, and stored frozen at −70° C. in Ham's F12 culture medium containing 5% DMSO until required. On the day of use, cells were thawed rapidly, diluted with an excess of culture medium, and centrifuged for 5 minutes at 2000 g. Cells were resuspended in 50 mM Tris-HCl assay buffer (pH 7.4 at 21° C., containing 0.02% BSA, 40 μg/mL bacitracin, 2 μg/mL chymostatin, 4 μg/mL leupeptin, and 2 μM phosphoramidon), counted, and polytronned (setting 5, 10 sec) before centrifuging for 10 minutes at 28,000 g. The final pellet was resuspended in assay buffer to a final cell concentration of 1.5×10^5/mL. For binding assays, 200 μL aliquots of membranes were incubated with [^125I][Tyr^4]bombesin (<0.1 nM) in the presence and absence of test compounds (final assay volume 250 μL) for 60 minutes and 90 minutes for NMB and GRP receptors, respectively. Nonspecific binding was defined by 1 μM bombesin. Assays were terminated by rapid filtration under vacuum onto Whatman GF/C filters presoaked in 0.2% PEI for >2 hours, and washed 50 mM Tris-HC (pH 6.9 at 21° C.; 6×1 mL). Radioactivity bound was determined using a gamma counter.
(§3) All competition data was analysed using nonlinear regression utilizing iterative curve-plotting procedures in Prism® (GraphPad Software Inc., San Diego, USA). IC50 values were corrected to Ki values using the Cheng-Prusoff equation (Cheng Y., PrusoffW. H., Biochem. Pharmacol. 22: 3099-3108, 1973).

human NMB receptor (BB1) = biological target: T2, human NMB receptor (BB1) (Homo sapiens, UniProt P28336); assay: BB1 binding assay ([125I][Tyr4]bombesin, CHO-K1 cell membranes)
T2 construct: expressed in transfected cells; host or cells: CHO-K1
Protocol: as §2, §3

T2 sequence (P28336 whole entry): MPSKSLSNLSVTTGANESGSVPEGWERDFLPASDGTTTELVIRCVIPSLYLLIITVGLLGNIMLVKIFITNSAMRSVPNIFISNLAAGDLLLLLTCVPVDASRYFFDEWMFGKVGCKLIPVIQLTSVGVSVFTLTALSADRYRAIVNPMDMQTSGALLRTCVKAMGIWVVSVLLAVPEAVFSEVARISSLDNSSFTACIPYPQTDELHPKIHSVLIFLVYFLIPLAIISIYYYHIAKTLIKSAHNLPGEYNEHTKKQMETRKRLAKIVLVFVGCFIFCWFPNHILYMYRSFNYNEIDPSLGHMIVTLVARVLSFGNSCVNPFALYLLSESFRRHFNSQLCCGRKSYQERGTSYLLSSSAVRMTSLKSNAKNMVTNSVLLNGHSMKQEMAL
T1 sequence (P30550 whole entry): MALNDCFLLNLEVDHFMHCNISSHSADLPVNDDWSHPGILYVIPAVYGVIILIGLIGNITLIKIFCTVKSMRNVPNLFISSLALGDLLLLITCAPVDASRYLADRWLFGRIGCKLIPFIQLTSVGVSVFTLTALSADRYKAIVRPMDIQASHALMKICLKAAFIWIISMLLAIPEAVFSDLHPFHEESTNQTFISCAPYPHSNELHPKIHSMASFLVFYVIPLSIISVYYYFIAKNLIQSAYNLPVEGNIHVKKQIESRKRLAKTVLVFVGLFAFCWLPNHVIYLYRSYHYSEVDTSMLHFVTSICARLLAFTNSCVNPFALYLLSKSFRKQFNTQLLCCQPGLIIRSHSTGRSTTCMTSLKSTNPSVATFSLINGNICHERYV

Structure (SMILES)	pelvic nerve-stimulated intracavernosal pressure (ICP), combination with PDE5 inhibitor (Male New Zealand rabbits)	pelvic-nerve stimulated (PNS) increases in genital (vaginal and clitoral) blood flow [1]	penile erection (erectile response) (conscious male rat; Compound 1 10 mg/kg sc, Compound 3 15 mg/kg sc, conscious rat model)	intracavernosal pressure (conscious male rat; one hour after 10 mg/kg sc Compound 1, 45 minutes after 15 mg/kg sc compound 3, conscious rat)	IC50 (human GRP receptor (BB2)) [nM]	IC50 (human NMB receptor (BB1)) [nM]
C[C@@](Cc1c[nH]c2ccccc12)(NC(=O)Nc1ccc([N+](=O)[O-])cc1)C(=O)NCC1(c2ccc(N)cc2)CCCCC1 [Compound 3, (2S)-N-{[1-(4-aminophenyl)cyclohexyl]methyl}-3-(1H-indol-3-yl)-2-methyl-2-{[(4-nitroanilino)carbonyl]amino}propanamide]	marked enhancement	potent enhancer	pro-erectile	significant increases in intracavernosal pressure	–	–
C[C@@](Cc1c[nH]c2ccccc12)(NS(=O)(=O)c1cccc([N+](=O)[O-])c1)C(=O)NCC1(c2ccccn2)CCCCC1 [Example 121]	–	–	–	–	1960	208
C[C@@](Cc1c[nH]c2ccccc12)(NS(=O)(=O)c1cccc(C(F)(F)F)c1)C(=O)NCC1(c2ccccn2)CCCCC1 [Example 124]	–	–	–	–	2250	440
C[C@@](Cc1c[nH]c2ccccc12)(NS(=O)(=O)c1ccc(F)c(Cl)c1)C(=O)NCC1(c2ccccn2)CCCCC1 [Example 156]	–	–	–	–	1220	284
